# From patent US20230017045A1, “PYRIDINE AND PYRIMIDINE CARBOXYLATE HERBICIDES AND METHODS OF USE THEREOF” (Dow AgroSciences LLC, priority 2017, published 2023)
# System: test plant species
# Test: Post-emergent herbicidal activity test (greenhouse, foliar spray, visual growth reduction)
# Format: in vivo
# Conditions: post-emergence, 336 h, ALOMY: blackgrass (Alopecurus myosuroides), 140 g ai/ha, 14 days after application, read-out: Visual Growth Reduction (%) 14 Days After Application, ALOMY
# Experimental: Post-emergent Test: Seeds or nutlets of the desired test plant species were planted in Sun Gro Metro-Mix® 360 planting mixture, which typically has a pH of 6.0 to 6.8 and an organic matter content of about 30 percent, in plastic pots with a surface area of 64 square centimeters. In some aspects, to ensure good germination and healthy plants, a fungicide treatment and/or other chemical or physical treatment was applied. The plants were grown for 7-21 d in a greenhouse with an approximate 15 h photoperiod which was maintained at 23-29° C. during the day and 22-28° C. during the night. Nutrients and water were added on a regular basis and supplemental lighting was provided with overhead metal halide 1000-Watt lamps as necessary. Plants were used for testing when they reached the first or second true leaf stage. A weighed amount, determined by the highest rate to be tested, of each test compound was placed in a 25 mL glass vial and was dissolved in 4 mL of a 97:3 v/v mixture of acetone and DMSO to obtain concentrated stock solutions. […] The concentrated stock solutions obtained were diluted with 20 mL of an aqueous mixture containing acetone, water, isopropyl alcohol, DMSO, […] crop oil concentrate, and X-77 surfactant in a 48.5:39:10:1.5:1.0:0.02 v/v ratio to obtain spray solutions containing the application rate. Compound requirements are based upon a 12 mL application volume at a rate of 187 liters per hectare (L/ha). Formulated compounds were applied to the plant material with an overhead Mandel track sprayer equipped with […] nozzles calibrated to deliver 187 L/ha over an application area of 0.64 square meters at a spray height of 18 inches (43 cm) above the average plant canopy height. Control plants were sprayed in the same manner with the solvent blank. The treated plants and control plants were placed in a greenhouse as described above and watered by subirrigation to prevent wash-off of the test compounds. After 14 d, the condition of the test plants as compared with that of the nontreated and control plants was determined visually and scored on a scale of 0 to 100 percent where 0 corresponds to no injury and 100 corresponds to complete control. In the reporting of the results, Table A: Percent Growth Reduction Conversion Table was used.
row,Compound,pest or weed control at 140 g/ha [%]
1,"COC(=O)c1nc(-c2ccc(I)cc2)c(F)cc1Cl [F100, Methyl 3-chloro-5-fluoro-6-(4-iodophenyl) picolinate]",0 to 29
2,"COC(=O)c1nc(-c2ccc(Cl)c(C)c2Cl)ccc1Cl [F48, Methyl 3-chloro-6-(2,4-dichloro-3-methylphenyl) picolinate]",0 to 29

# Same assay, conditions: post-emergence, 336 h, AMARE: redroot pigweed (Amaranthus retroflexus), 140 g ai/ha, 14 days after application, read-out: Visual Growth Reduction (%) 14 Days After Application, AMARE
row,Compound,pest or weed control at 140 g/ha [%]
1,"COC(=O)c1nc(-c2ccc(I)cc2)c(F)cc1Cl [F100, Methyl 3-chloro-5-fluoro-6-(4-iodophenyl) picolinate]",0 to 29
2,"COC(=O)c1nc(-c2ccc(Cl)c(C)c2Cl)ccc1Cl [F48, Methyl 3-chloro-6-(2,4-dichloro-3-methylphenyl) picolinate]",60 to 74

# Same assay, conditions: post-emergence, 336 h, AVEFA: wild oat (Avena fatua), 140 g ai/ha, 14 days after application, read-out: Visual Growth Reduction (%) 14 Days After Application, AVEFA
row,Compound,pest or weed control at 140 g/ha [%]
1,"COC(=O)c1nc(-c2ccc(I)cc2)c(F)cc1Cl [F100, Methyl 3-chloro-5-fluoro-6-(4-iodophenyl) picolinate]",0 to 29
2,"COC(=O)c1nc(-c2ccc(Cl)c(C)c2Cl)ccc1Cl [F48, Methyl 3-chloro-6-(2,4-dichloro-3-methylphenyl) picolinate]",0 to 29

# Same assay, conditions: post-emergence, 336 h, CHEAL: lambsquarters (Chenopodium album), 140 g ai/ha, 14 days after application, read-out: Visual Growth Reduction (%) 14 Days After Application, CHEAL
row,Compound,pest or weed control at 140 g/ha [%]
1,"COC(=O)c1nc(-c2ccc(I)cc2)c(F)cc1Cl [F100, Methyl 3-chloro-5-fluoro-6-(4-iodophenyl) picolinate]",0 to 29
2,"COC(=O)c1nc(-c2ccc(Cl)c(C)c2Cl)ccc1Cl [F48, Methyl 3-chloro-6-(2,4-dichloro-3-methylphenyl) picolinate]",95 to 100

# Same assay, conditions: post-emergence, 336 h, CIRAR: canada thistle (Cirsium arvense), 140 g ai/ha, 14 days after application, read-out: Visual Growth Reduction (%) 14 Days After Application, CIRAR
row,Compound,pest or weed control at 140 g/ha [%]
1,"COC(=O)c1nc(-c2ccc(I)cc2)c(F)cc1Cl [F100, Methyl 3-chloro-5-fluoro-6-(4-iodophenyl) picolinate]",45 to 59
2,"COC(=O)c1nc(-c2ccc(Cl)c(C)c2Cl)ccc1Cl [F48, Methyl 3-chloro-6-(2,4-dichloro-3-methylphenyl) picolinate]",0 to 29

# Same assay, conditions: post-emergence, 336 h, CYPES: yellow nutsedge (Cyperus esculentus), 140 g ai/ha, 14 days after application, read-out: Visual Growth Reduction (%) 14 Days After Application, CYPES
row,Compound,pest or weed control at 140 g/ha [%]
1,"COC(=O)c1nc(-c2ccc(I)cc2)c(F)cc1Cl [F100, Methyl 3-chloro-5-fluoro-6-(4-iodophenyl) picolinate]",30 to 44
2,"COC(=O)c1nc(-c2ccc(Cl)c(C)c2Cl)ccc1Cl [F48, Methyl 3-chloro-6-(2,4-dichloro-3-methylphenyl) picolinate]",0 to 29

# Same assay, conditions: post-emergence, 336 h, DIGSA: crabgrass (Digitaria sanguinalis), 140 g ai/ha, 14 days after application, read-out: Visual Growth Reduction (%) 14 Days After Application, DIGSA
row,Compound,pest or weed control at 140 g/ha [%]
1,"COC(=O)c1nc(-c2ccc(I)cc2)c(F)cc1Cl [F100, Methyl 3-chloro-5-fluoro-6-(4-iodophenyl) picolinate]",0 to 29
2,"COC(=O)c1nc(-c2ccc(Cl)c(C)c2Cl)ccc1Cl [F48, Methyl 3-chloro-6-(2,4-dichloro-3-methylphenyl) picolinate]",0 to 29

# Same assay, conditions: post-emergence, 336 h, ECHCG: barnyardgrass (Echinochloa crus-galli), 140 g ai/ha, 14 days after application, read-out: Visual Growth Reduction (%) 14 Days After Application, ECHCG
row,Compound,pest or weed control at 140 g/ha [%]
1,"COC(=O)c1nc(-c2ccc(I)cc2)c(F)cc1Cl [F100, Methyl 3-chloro-5-fluoro-6-(4-iodophenyl) picolinate]",0 to 29
2,"COC(=O)c1nc(-c2ccc(Cl)c(C)c2Cl)ccc1Cl [F48, Methyl 3-chloro-6-(2,4-dichloro-3-methylphenyl) picolinate]",0 to 29

# Same assay, conditions: post-emergence, 336 h, IPOHE: ivy-leaf morning glory (Ipomoea hederacea), 140 g ai/ha, 14 days after application, read-out: Visual Growth Reduction (%) 14 Days After Application, IPOHE
row,Compound,pest or weed control at 140 g/ha [%]
1,"COC(=O)c1nc(-c2ccc(I)cc2)c(F)cc1Cl [F100, Methyl 3-chloro-5-fluoro-6-(4-iodophenyl) picolinate]",30 to 44

# Same assay, conditions: post-emergence, 336 h, KCHSC: kochia (Bassia scoparia), 140 g ai/ha, 14 days after application, read-out: Visual Growth Reduction (%) 14 Days After Application, KCHSC
row,Compound,pest or weed control at 140 g/ha [%]
1,"COC(=O)c1nc(-c2ccc(I)cc2)c(F)cc1Cl [F100, Methyl 3-chloro-5-fluoro-6-(4-iodophenyl) picolinate]",0 to 29
2,"COC(=O)c1nc(-c2ccc(Cl)c(C)c2Cl)ccc1Cl [F48, Methyl 3-chloro-6-(2,4-dichloro-3-methylphenyl) picolinate]",45 to 59

# Same assay, conditions: post-emergence, 336 h, ORYSA: rice (Oryza sativa), 140 g ai/ha, 14 days after application, read-out: Visual Growth Reduction (%) 14 Days After Application, ORYSA
row,Compound,pest or weed control at 140 g/ha [%]
1,"COC(=O)c1nc(-c2ccc(I)cc2)c(F)cc1Cl [F100, Methyl 3-chloro-5-fluoro-6-(4-iodophenyl) picolinate]",0 to 29
2,"COC(=O)c1nc(-c2ccc(Cl)c(C)c2Cl)ccc1Cl [F48, Methyl 3-chloro-6-(2,4-dichloro-3-methylphenyl) picolinate]",0 to 29

# Same assay, conditions: post-emergence, 336 h, SETFA: giant foxtail (Setaria faberi), 140 g ai/ha, 14 days after application, read-out: Visual Growth Reduction (%) 14 Days After Application, SETFA
row,Compound,pest or weed control at 140 g/ha [%]
1,"COC(=O)c1nc(-c2ccc(I)cc2)c(F)cc1Cl [F100, Methyl 3-chloro-5-fluoro-6-(4-iodophenyl) picolinate]",0 to 29
2,"COC(=O)c1nc(-c2ccc(Cl)c(C)c2Cl)ccc1Cl [F48, Methyl 3-chloro-6-(2,4-dichloro-3-methylphenyl) picolinate]",0 to 29

# Same assay, conditions: post-emergence, 336 h, SORVU: grain sorghum (Sorghum vulgare), 140 g ai/ha, 14 days after application, read-out: Visual Growth Reduction (%) 14 Days After Application, SORVU
row,Compound,pest or weed control at 140 g/ha [%]
1,"COC(=O)c1nc(-c2ccc(I)cc2)c(F)cc1Cl [F100, Methyl 3-chloro-5-fluoro-6-(4-iodophenyl) picolinate]",30 to 44
2,"COC(=O)c1nc(-c2ccc(Cl)c(C)c2Cl)ccc1Cl [F48, Methyl 3-chloro-6-(2,4-dichloro-3-methylphenyl) picolinate]",0 to 29

# Same assay, conditions: post-emergence, 336 h, STEME: common chickweed (Stellaria media), 140 g ai/ha, 14 days after application, read-out: Visual Growth Reduction (%) 14 Days After Application, STEME
row,Compound,pest or weed control at 140 g/ha [%]
1,"COC(=O)c1nc(-c2ccc(I)cc2)c(F)cc1Cl [F100, Methyl 3-chloro-5-fluoro-6-(4-iodophenyl) picolinate]",0 to 29
2,"COC(=O)c1nc(-c2ccc(Cl)c(C)c2Cl)ccc1Cl [F48, Methyl 3-chloro-6-(2,4-dichloro-3-methylphenyl) picolinate]",0 to 29

# Same assay, conditions: post-emergence, 336 h, TRZAS: wheat, spring (Triticum aestivum), 140 g ai/ha, 14 days after application, read-out: Visual Growth Reduction (%) 14 Days After Application, TRZAS
row,Compound,pest or weed control at 140 g/ha [%]
1,"COC(=O)c1nc(-c2ccc(I)cc2)c(F)cc1Cl [F100, Methyl 3-chloro-5-fluoro-6-(4-iodophenyl) picolinate]",0 to 29
2,"COC(=O)c1nc(-c2ccc(Cl)c(C)c2Cl)ccc1Cl [F48, Methyl 3-chloro-6-(2,4-dichloro-3-methylphenyl) picolinate]",0 to 29
